Test results published in publication PMC12155096 (International Journal of Molecular Sciences, 2025).
Like-named read-outs stand apart in the source and are kept apart here.

Assays:
human CYP2C9 [1] = molecular target: T1, human CYP2C9 (Homo sapiens, UniProt P11712); assay: biochemical
human CYP1A2 [2] = molecular target: T2, human CYP1A2 (Homo sapiens, UniProt P05177); assay: biochemical
T2 sequence (P05177 1-516): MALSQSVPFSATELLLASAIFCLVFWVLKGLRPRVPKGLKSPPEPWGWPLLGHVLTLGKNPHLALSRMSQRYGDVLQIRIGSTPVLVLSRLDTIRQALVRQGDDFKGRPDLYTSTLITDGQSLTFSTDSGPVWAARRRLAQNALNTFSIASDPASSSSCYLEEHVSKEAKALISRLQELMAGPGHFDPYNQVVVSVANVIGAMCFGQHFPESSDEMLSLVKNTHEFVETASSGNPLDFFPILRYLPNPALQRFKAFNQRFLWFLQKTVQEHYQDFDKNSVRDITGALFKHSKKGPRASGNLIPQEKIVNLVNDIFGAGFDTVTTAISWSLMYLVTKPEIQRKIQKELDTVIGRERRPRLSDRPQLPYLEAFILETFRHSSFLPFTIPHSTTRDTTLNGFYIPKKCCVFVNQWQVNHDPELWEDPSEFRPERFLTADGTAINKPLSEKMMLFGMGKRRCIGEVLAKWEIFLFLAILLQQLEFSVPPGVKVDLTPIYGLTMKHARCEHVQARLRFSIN

human CYP2C19 [3] = molecular target: T3, human CYP2C19 (Homo sapiens, UniProt P33261)
T3 sequence (P33261 whole entry): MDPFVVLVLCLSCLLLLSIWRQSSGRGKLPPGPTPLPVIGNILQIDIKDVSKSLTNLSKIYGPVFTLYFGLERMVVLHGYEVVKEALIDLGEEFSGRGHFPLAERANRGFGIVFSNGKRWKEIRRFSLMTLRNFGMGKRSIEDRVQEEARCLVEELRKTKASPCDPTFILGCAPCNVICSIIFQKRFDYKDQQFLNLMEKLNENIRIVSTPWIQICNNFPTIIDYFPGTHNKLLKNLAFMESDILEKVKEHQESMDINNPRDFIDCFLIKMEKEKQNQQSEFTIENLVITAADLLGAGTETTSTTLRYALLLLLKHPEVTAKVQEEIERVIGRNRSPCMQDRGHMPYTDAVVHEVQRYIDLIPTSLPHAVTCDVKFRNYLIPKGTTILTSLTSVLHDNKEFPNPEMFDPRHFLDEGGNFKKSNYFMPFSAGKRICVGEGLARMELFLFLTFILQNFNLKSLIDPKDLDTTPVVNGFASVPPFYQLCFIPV

CYP3A4 = CYP3A4 (Homo sapiens, UniProt P08684); assay: biochemical
CYP3A4, sequence (P08684 whole entry): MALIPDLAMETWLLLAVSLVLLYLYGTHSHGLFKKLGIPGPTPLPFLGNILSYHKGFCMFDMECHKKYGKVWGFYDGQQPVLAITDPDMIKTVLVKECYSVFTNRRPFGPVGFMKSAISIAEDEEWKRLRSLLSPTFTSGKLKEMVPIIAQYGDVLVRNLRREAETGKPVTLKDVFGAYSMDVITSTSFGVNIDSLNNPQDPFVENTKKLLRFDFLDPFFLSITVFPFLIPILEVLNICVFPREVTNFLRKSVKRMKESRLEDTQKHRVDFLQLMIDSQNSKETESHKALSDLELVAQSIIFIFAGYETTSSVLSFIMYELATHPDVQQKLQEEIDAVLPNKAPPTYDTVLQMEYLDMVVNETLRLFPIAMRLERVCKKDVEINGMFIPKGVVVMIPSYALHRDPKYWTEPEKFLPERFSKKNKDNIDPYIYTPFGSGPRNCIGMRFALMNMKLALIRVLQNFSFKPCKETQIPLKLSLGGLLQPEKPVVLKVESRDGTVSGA

human CYP2D6 = human CYP2D6 (Homo sapiens, UniProt P10635)
human CYP2D6, sequence (P10635 whole entry): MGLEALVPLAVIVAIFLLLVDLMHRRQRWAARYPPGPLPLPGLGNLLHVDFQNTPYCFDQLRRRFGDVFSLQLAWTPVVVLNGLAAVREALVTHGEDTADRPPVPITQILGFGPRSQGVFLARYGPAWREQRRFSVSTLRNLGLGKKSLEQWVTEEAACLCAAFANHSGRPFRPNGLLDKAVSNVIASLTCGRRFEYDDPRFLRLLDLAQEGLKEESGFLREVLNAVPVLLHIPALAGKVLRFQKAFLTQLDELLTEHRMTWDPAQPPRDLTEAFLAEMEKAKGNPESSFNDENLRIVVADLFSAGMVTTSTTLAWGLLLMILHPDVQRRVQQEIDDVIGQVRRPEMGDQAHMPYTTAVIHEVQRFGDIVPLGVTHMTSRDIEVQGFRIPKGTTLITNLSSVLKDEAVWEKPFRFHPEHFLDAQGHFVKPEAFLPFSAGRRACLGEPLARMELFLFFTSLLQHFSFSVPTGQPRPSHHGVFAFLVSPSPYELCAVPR

human CYP1A2 [4] = molecular target: T2, human CYP1A2
human CYP2C9 [5] = molecular target: T1, human CYP2C9
human CYP2C19 [6] = molecular target: T3, human CYP2C19; assay: biochemical; details: CYP2C19 AC50 (half-maximal activity concentration)
[7] = CYP2C9 AC50 (half-maximal activity concentration)
[8] = CYP1A2 AC50 (half-maximal activity concentration)
[9] = CYP3A4 AC50 (half-maximal activity concentration)

T1 sequence (P11712 whole entry): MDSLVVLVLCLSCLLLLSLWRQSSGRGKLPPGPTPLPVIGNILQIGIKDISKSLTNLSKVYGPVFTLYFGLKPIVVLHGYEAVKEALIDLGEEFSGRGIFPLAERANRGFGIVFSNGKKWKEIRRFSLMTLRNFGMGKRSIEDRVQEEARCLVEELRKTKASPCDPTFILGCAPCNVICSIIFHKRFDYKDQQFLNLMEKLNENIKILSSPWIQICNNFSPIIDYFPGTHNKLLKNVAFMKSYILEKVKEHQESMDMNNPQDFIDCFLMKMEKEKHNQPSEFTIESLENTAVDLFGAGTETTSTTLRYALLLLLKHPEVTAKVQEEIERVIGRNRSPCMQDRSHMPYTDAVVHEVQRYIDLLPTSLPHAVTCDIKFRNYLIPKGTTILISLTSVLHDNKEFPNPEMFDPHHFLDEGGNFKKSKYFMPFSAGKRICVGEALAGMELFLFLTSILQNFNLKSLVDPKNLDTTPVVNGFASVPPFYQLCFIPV

| Compound | AC50 (human CYP2C9 [1]; [7]) | AC50 (human CYP1A2 [2]; [8]) | CYP2C19 AC50 (half-maximal activity concentration) (human CYP2C19 [3]) | AC50 (CYP3A4; [9]) | CYP2D6 AC50 (half-maximal activity concentration) (human CYP2D6) | AC50 (human CYP2C9 [1]) | AC50 (human CYP1A2 [2]) | AC50 (CYP3A4) | CYP1A2 AC50 (half-maximal activity concentration) (human CYP1A2 [4]) | CYP2C9 AC50 (half-maximal activity concentration) (human CYP2C9 [5]) | AC50 (human CYP2C19 [6]) |
| --- | --- | --- | --- | --- | --- | --- | --- | --- | --- | --- | --- |
| CC=CC(=O)N(CC)c1ccccc1C (mixture of isomers) [Crotamiton] | 40.1 µM | 31.4 µM | Inconclusive inhibitor | 7.51 µM | Inactive |  |  |  |  |  |  |
| CCCCCCCCCCCCN1CCCC1=O [1-Dodecyl-2-pyrrolidinone] |  |  | Inconclusive inhibitor |  | Inactive | 37.9 µM | 29.7 µM | 9.84 µM |  |  |  |
| Oc1c(Cl)cc(Cl)c(Cl)c1Cl [2,3,4,6-Tetrachlorophenol] | 28.3 µM | 57.1 µM | Inactive | 67 µM | Inactive |  |  |  |  |  |  |
| Oc1c(Cl)c(Cl)cc(Cl)c1Cl [2,3,5,6-Tetrachlorophenol] | 22.7 µM | 66.6 µM | Inconclusive inhibitor | 58.1 µM | Inactive |  |  |  |  |  |  |
| O=C(O)c1cc(I)cc(I)c1I [2,3,5-Triiodobenzoic acid] | 20.9 µM | 57.3 µM | Inconclusive inhibitor | 75.1 µM | Inactive |  |  |  |  |  |  |
| Oc1c(Cl)ccc(Cl)c1Cl [2,3,6-Trichlorophenol] | 35.7 µM | 37 µM | Inconclusive inhibitor | 55.4 µM | Inconclusive inhibitor |  |  |  |  |  |  |
| CCCCCCCCCC(C)C=O (stereo not drawn) [2-Methylundecanal] | 65.1 µM | 74.2 µM | Inconclusive inhibitor | 87.3 µM | Inactive |  |  |  |  |  |  |
| Oc1nc(Cl)c(Cl)cc1Cl [3,5,6-Trichloro-2-pyridinol] | 45.4 µM | 47.9 µM | Inconclusive inhibitor | 65.8 µM | Inconclusive inhibitor |  |  |  |  |  |  |
| O=C(O)c1cccc(Oc2ccccc2)c1 [3-Phenoxybenzoic acid] |  |  | Inactive |  | Inactive |  |  | 35.6 µM | Inactive | Inactive |  |
| Cc1ccc(C(=O)O)cc1[N+](=O)[O-] [4-Methyl-3-nitrobenzoic acid] |  |  | Inactive | 35.3 µM | Inactive |  |  |  | Inconclusive inhibitor | Inactive |  |
| CCNc1nc(NC(C)C)nc(SC)n1 [Ametryn] | 20.8 µM | 9.81 µM | Inconclusive inhibitor | 29.2 µM | Inactive |  |  |  |  |  |  |
| COc1cc(Nc2c(C#N)cnc3cc(OCCCN4CCN(C)CC4)c(OC)cc23)c(Cl)cc1Cl [Bosutinib] |  |  | Inactive | 3.48 µM | Inconclusive inhibitor |  |  |  | Inactive | Inactive |  |
| O=C(CCCN1CCC(O)(c2ccc(Br)cc2)CC1)c1ccc(F)cc1 [Bromperidol] |  |  | Inactive | 4.92 µM | Inconclusive inhibitor |  |  |  | Inactive | Inactive |  |
| O=C(NC(=O)c1c(F)cccc1F)Nc1cc(Cl)c(Oc2ncc(C(F)(F)F)cc2Cl)c(Cl)c1 [Chlorfluazuron] |  |  | Inconclusive inhibitor | 9.2 µM | Inactive |  |  |  | Inactive | Inconclusive inhibitor |  |
| CCSC(=O)N(CC)C1CCCCC1 [Cycloate] |  |  | Inconclusive inhibitor | 31.7 µM | Inactive |  |  |  | Inactive | Inconclusive inhibitor |  |
| N#Cc1c(Cl)cccc1Cl [Dichlobenil] |  |  | Inactive | 17.8 µM | Inactive |  |  |  | Inconclusive inhibitor | Inconclusive inhibitor |  |
| CCOC(=O)CCCCCCCCC(=O)OCC [Diethyl decanedioate] | 42.2 µM | 35.2 µM | Inconclusive inhibitor | 26.2 µM | Inactive |  |  |  |  |  |  |
| C[C@]12CC[C@@H]3c4ccc(OC(=O)N(CCCl)CCCl)cc4CC[C@H]3[C@@H]1CC[C@@H]2O [Estramustine] |  |  | Inactive | 16.9 µM | Inactive |  |  |  | Inactive | Inactive |  |
| CCC1(c2ccccc2)CCC(=O)NC1=O (stereo not drawn) [Glutethimide] |  |  | Inconclusive inhibitor | 26 µM | Inactive |  |  |  | Inactive | Inconclusive inhibitor |  |
| C[C@@H]1CC[C@@]2(OC1)O[C@H]1C[C@H]3[C@@H]4CC[C@H]5C[C@@H](O)CC[C@]5(C)[C@H]4CC(=O)[C@]3(C)[C@H]1[C@@H]2C [Hecogenin] |  |  | Inactive | 0.98 µM | Inactive |  |  |  | Inactive | Inactive |  |
| O=C(O)CCCc1c[nH]c2ccccc12 [Indole-3-butyric acid] |  |  | Inconclusive inhibitor | 13.4 µM | Inactive |  |  |  | Inactive | Inactive |  |
| O=C(CCOCCOCCOCCOCCC(=O)Nc1c(I)cc(I)c(C(=O)O)c1I)Nc1c(I)cc(I)c(C(=O)O)c1I [Iodoxamic Acid] |  |  | Inactive |  | Inactive |  |  | 5.65 ± 2.66 µM | Inactive | Inactive |  |
| CC(=O)[C@H]1[C@H](C#N)C[C@H]2[C@@H]3CC=C4C[C@@H](O)CC[C@]4(C)[C@H]3CC[C@@]21C [Pregnenolone carbonitrile] |  |  | Inactive | 2.22 µM | Inactive |  |  |  | Inactive | Inconclusive inhibitor |  |
| O=C1OC(=O)c2c(Cl)c(Cl)c(Cl)c(Cl)c21 [Tetrachlorophthalic anhydride] |  |  |  | 34.7 µM | Inconclusive inhibitor |  |  |  | Inactive | Inactive | 89.4 µM |
